In the supplement of paper PMC10627819:

Key:
[1] = test system: S. aureus Newman; experiment: Bliss interaction score (quartile over a dose matrix) (fitness difference); higher = more antagonism (negative = synergy)
How it was run: (§1)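 Quartiles summarise the Bliss score over technical, biological and donor/recipient replicates, where the score is observed minus expected fitness under a product model. Expected fitness uses single-drug values inferred from combination data. Fitness is OD595 at entry into stationary phase over the plate's robust no-drug mean, capped at 1.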

[2] = test system: S. pneumoniae D39V; experiment: as above
How it was run: as §1

[3] = test system: S. aureus DSM 20231; experiment: as above
How it was run: as §1

[4] = test system: B. subtilis 168; experiment: as above
How it was run: as §1

[5] = test system: S. aureus Newman; experiment: fitness (endpoint OD595 vs no drug) (fraction); higher = more growth
How it was run: (§2)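 Each well of a 384-well plate received 30 µl of culture at OD595 0.01, or 55 µl for S. pneumoniae. TSB, LB Lennox or CY served as media at 37 °C. OD595 was taken every 30 min for 14 h and corrected by subtracting the first reading. Fitness is the optical density at stationary-phase entry divided by the robust mean of no-drug controls, capped at 1.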

[6] = test system: S. pneumoniae D39V; experiment: as above
How it was run: as §2

[7] = test system: S. aureus DSM 20231; experiment: as above
How it was run: as §2

[8] = test system: B. subtilis 168; experiment: as above
How it was run: as §2
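For Bliss interaction score (quartile over a dose matrix) in this document: first quartile when negative (synergy) and third quartile when positive (antagonism).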

CO/N=C(\C(=O)N[C@@H]1C(=O)N2C(C(=O)O)=C(COC(C)=O)CS[C@H]12)c1csc(N)n1 [Cefotaxime] + COc1c(N2C[C@@H]3CCCN[C@@H]3C2)c(F)cc2c(=O)c(C(=O)O)cn(C3CC3)c12 [Moxifloxacin]
Settings	Bliss interaction score
[1]	0.0354
[2]	-0.0434
[3]	-0.0497
[4]	0.0581

one replicate
Settings	fitness
[5], first compound 0.039 µg/mL, partner 0.0075 µg/mL	0.669
[5], first compound 0.039 µg/mL, partner 0.015 µg/mL	0.529
[5], first compound 0.039 µg/mL, partner 0.03 µg/mL	0.0684
[7], first compound 0.039 µg/mL, partner 0.06 µg/mL	0.611
[7], first compound 0.039 µg/mL, partner 0.12 µg/mL	0.449
[7], first compound 0.078 µg/mL, partner 0.06 µg/mL	0.588
[7], first compound 0.078 µg/mL, partner 0.12 µg/mL	0.478
[7], first compound 0.156 µg/mL, partner 0.06 µg/mL	0.568
[7], first compound 0.156 µg/mL, partner 0.12 µg/mL	0.445
[7], first compound 0.312 µg/mL, partner 0.06 µg/mL	0.518
[7], first compound 0.312 µg/mL, partner 0.12 µg/mL	0.408
[8], first compound 0.00775 µg/mL, partner 0.0312 µg/mL	0.0585
[8], first compound 0.00775 µg/mL, partner 0.0625 µg/mL	0.0377
[8], first compound 0.00775 µg/mL, partner 0.125 µg/mL	0.0204
[8], first compound 0.0155 µg/mL, partner 0.0312 µg/mL	0.0281
[8], first compound 0.0155 µg/mL, partner 0.0625 µg/mL	0.0221
[8], first compound 0.0155 µg/mL, partner 0.125 µg/mL	0.0115
[8], first compound 0.031 µg/mL, partner 0.0312 µg/mL	0.041
[8], first compound 0.031 µg/mL, partner 0.0625 µg/mL	0.028
[8], first compound 0.031 µg/mL, partner 0.125 µg/mL	0.0186

Settings	fitness
[5], first compound 0.078 µg/mL, partner 0.0075 µg/mL	0.657
[5], first compound 0.078 µg/mL, partner 0.015 µg/mL	0.498
[5], first compound 0.078 µg/mL, partner 0.03 µg/mL	0.0551
[5], first compound 0.156 µg/mL, partner 0.0075 µg/mL	0.558
[5], first compound 0.156 µg/mL, partner 0.015 µg/mL	0.432
[5], first compound 0.156 µg/mL, partner 0.03 µg/mL	0.046
[5], first compound 0.312 µg/mL, partner 0.0075 µg/mL	0.354
[5], first compound 0.312 µg/mL, partner 0.015 µg/mL	0.165
[5], first compound 0.312 µg/mL, partner 0.03 µg/mL	0.0657
[5], first compound 0.625 µg/mL, partner 0.0075 µg/mL	0.0357
[5], first compound 0.625 µg/mL, partner 0.015 µg/mL	0.019
[5], first compound 0.625 µg/mL, partner 0.03 µg/mL	0.0143
[5], first compound 1.25 µg/mL, partner 0.0075 µg/mL	0.0365
[5], first compound 1.25 µg/mL, partner 0.015 µg/mL	0.0045
[5], first compound 1.25 µg/mL, partner 0.03 µg/mL	0.0158
[5], first compound 2.5 µg/mL, partner 0.0075 µg/mL	0.0488
[5], first compound 2.5 µg/mL, partner 0.015 µg/mL	0.0142
[5], first compound 2.5 µg/mL, partner 0.03 µg/mL	0.0162
[6], first compound 0.0018 µg/mL, partner 0.005 µg/mL	0.979
[6], first compound 0.0018 µg/mL, partner 0.01 µg/mL	0.976
[6], first compound 0.0018 µg/mL, partner 0.02 µg/mL	0.987
[6], first compound 0.0018 µg/mL, partner 0.0312 µg/mL	0.13
[6], first compound 0.0018 µg/mL, partner 0.0625 µg/mL	0.0856
[6], first compound 0.0018 µg/mL, partner 0.125 µg/mL	0.0466
[6], first compound 0.0035 µg/mL, partner 0.005 µg/mL	0.973
[6], first compound 0.0035 µg/mL, partner 0.01 µg/mL	0.976
[6], first compound 0.0035 µg/mL, partner 0.02 µg/mL	0.964
[6], first compound 0.0035 µg/mL, partner 0.0312 µg/mL	0.108
[6], first compound 0.0035 µg/mL, partner 0.0625 µg/mL	0.0929
[6], first compound 0.0035 µg/mL, partner 0.125 µg/mL	0.0516
[6], first compound 0.007 µg/mL, partner 0.005 µg/mL	0.801
[6], first compound 0.007 µg/mL, partner 0.01 µg/mL	0.827
[6], first compound 0.007 µg/mL, partner 0.02 µg/mL	0.833
[6], first compound 0.007 µg/mL, partner 0.0312 µg/mL	0.0633
[6], first compound 0.007 µg/mL, partner 0.0625 µg/mL	0.0639
[6], first compound 0.007 µg/mL, partner 0.125 µg/mL	0.046
[7], first compound 0.039 µg/mL, partner 0.0075 µg/mL	0.674
[7], first compound 0.039 µg/mL, partner 0.015 µg/mL	0.612
[7], first compound 0.039 µg/mL, partner 0.03 µg/mL	0.543
[7], first compound 0.078 µg/mL, partner 0.0075 µg/mL	0.668
[7], first compound 0.078 µg/mL, partner 0.015 µg/mL	0.634
[7], first compound 0.078 µg/mL, partner 0.03 µg/mL	0.554
[7], first compound 0.156 µg/mL, partner 0.0075 µg/mL	0.636
[7], first compound 0.156 µg/mL, partner 0.015 µg/mL	0.603
[7], first compound 0.156 µg/mL, partner 0.03 µg/mL	0.536
[7], first compound 0.312 µg/mL, partner 0.0075 µg/mL	0.574
[7], first compound 0.312 µg/mL, partner 0.015 µg/mL	0.549
[7], first compound 0.312 µg/mL, partner 0.03 µg/mL	0.491
[8], first compound 0.0625 µg/mL, partner 0.0312 µg/mL	0.0617
[8], first compound 0.0625 µg/mL, partner 0.0625 µg/mL	0.0437
[8], first compound 0.0625 µg/mL, partner 0.125 µg/mL	0.0547
[8], first compound 0.125 µg/mL, partner 0.0312 µg/mL	0.062
[8], first compound 0.125 µg/mL, partner 0.0625 µg/mL	0.044
[8], first compound 0.125 µg/mL, partner 0.125 µg/mL	0.05
[8], first compound 0.25 µg/mL, partner 0.0312 µg/mL	0.0545
[8], first compound 0.25 µg/mL, partner 0.0625 µg/mL	0.0527
[8], first compound 0.25 µg/mL, partner 0.125 µg/mL	0.0632
[8], first compound 0.5 µg/mL, partner 2 µg/mL	0.0626
[8], first compound 0.5 µg/mL, partner 4 µg/mL	0.0595
[8], first compound 0.5 µg/mL, partner 8 µg/mL	0.043
[8], first compound 1 µg/mL, partner 2 µg/mL	0.0496
[8], first compound 1 µg/mL, partner 4 µg/mL	0.0443
[8], first compound 1 µg/mL, partner 8 µg/mL	0.0259
[8], first compound 2 µg/mL, partner 2 µg/mL	0.0811
[8], first compound 2 µg/mL, partner 4 µg/mL	0.0907
[8], first compound 2 µg/mL, partner 8 µg/mL	0.0539
